# Experimental data taken from PubChem BioAssay AID248 (DTP/NCI, 2004).
# Where “and” joins values, the source holds several entries; their conditions need not be identical. Equal values may be shown once. Inconclusive results and toxic doses are left out.
# Tested on: L1210 leukemia ip in BDF1 mice, survival T/C
# Assay: NCI In Vivo Anticancer Drug Screen. Data for tumor model L1210 Leukemia (intraperitoneal) in B6D2F1 (BDF1) mice
# Conditions: endpoint: mean survival time, higher = longer survival
# How it was run: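 Value reflects the ratio of survival in compound-treated mice to survival in vehicle-treated controls, with both groups carrying the same transplanted tumor.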
smiles,measurement,setting,value
COc1cc2c3c(c4ccc(OC)c(OC)c4c2cc1OC)CN1CCC[C@@H]1C3,T/C,"dose: 1.25 mg/kg/injection, schedule: Q01DX Z (im), vehicle: water",103 % of control
same,T/C,"dose: 1.25 mg/kg/injection, schedule: Q01DX Z (ip), vehicle: water",103 % of control
same,T/C,"dose: 1.25 mg/kg/injection, schedule: Q01DX Z (sc), vehicle: water",106 % of control
same,T/C,"dose: 1.25 mg/kg/injection, schedule: Q02DX Z (ip), vehicle: water",105 % of control
same,T/C,"dose: 2.2 mg/kg/injection, schedule: Q01DX Z (ip), vehicle: carboxymethylcellulose (CMC)",111 % of control
same,T/C,"dose: 2.2 mg/kg/injection, schedule: Q01DX Z (ip), vehicle: other",107 % of control
same,T/C,"dose: 2.5 mg/kg/injection, schedule: Q01DX Z (im), vehicle: water",111 % of control
same,T/C,"dose: 2.5 mg/kg/injection, schedule: Q01DX Z (ip), vehicle: water",94 % of control and 106 % of control
same,T/C,"dose: 2.5 mg/kg/injection, schedule: Q01DX Z (sc), vehicle: water",106 % of control
same,T/C,"dose: 2.5 mg/kg/injection, schedule: Q02DX Z (ip), vehicle: water",109 % of control
same,T/C,"dose: 2.5 mg/kg/injection, schedule: Q03DX Z (ip), vehicle: water",105 % of control
same,T/C,"dose: 4.0 mg/kg/injection, schedule: Q01DX Z (ip), vehicle: water",94 % of control
same,T/C,"dose: 4.4 mg/kg/injection, schedule: Q01DX Z (ip), vehicle: carboxymethylcellulose (CMC)",114 % of control and 117 % of control
same,T/C,"dose: 5.0 mg/kg/injection, schedule: Q01DX005 (iv), vehicle: water",106 % of control
same,T/C,"dose: 5.0 mg/kg/injection, schedule: Q01DX Z (im), vehicle: water",118 % of control
same,T/C,"dose: 5.0 mg/kg/injection, schedule: Q01DX Z (ip), vehicle: water",103 % of control and 117 % of control and 124 % of control
same,T/C,"dose: 5.0 mg/kg/injection, schedule: Q01DX Z (oral), vehicle: water",112 % of control and 115 % of control
same,T/C,"dose: 5.0 mg/kg/injection, schedule: Q01DX Z (sc), vehicle: water",122 % of control
same,T/C,"dose: 5.0 mg/kg/injection, schedule: Q02DX Z (ip), vehicle: water",95 % of control and 103 % of control
same,T/C,"dose: 5.0 mg/kg/injection, schedule: Q03DX Z (ip), vehicle: water",103 % of control and 106 % of control
same,T/C,"dose: 6.0 mg/kg/injection, schedule: Q01DX Z (ip), vehicle: water",109 % of control
same,T/C,"dose: 6.6 mg/kg/injection, schedule: Q01DX Z (ip), vehicle: carboxymethylcellulose (CMC)",117 % of control and 118 % of control
same,T/C,"dose: 6.6 mg/kg/injection, schedule: Q01DX Z (ip), vehicle: other",117 % of control
same,T/C,"dose: 7.5 mg/kg/injection, schedule: Q01DX Z (ip), vehicle: water",115 % of control
same,T/C,"dose: 8.0 mg/kg/injection, schedule: Q01DX Z (ip), vehicle: water",97 % of control and 101 % of control
same,T/C,"dose: 9.0 mg/kg/injection, schedule: Q01DX Z (ip), vehicle: water",120 % of control
same,T/C,"dose: 10.0 mg/kg/injection, schedule: Q01DX005 (iv), vehicle: water",114 % of control
same,T/C,"dose: 10.0 mg/kg/injection, schedule: Q01DX Z (im), vehicle: water",97 % of control
same,T/C,"dose: 10.0 mg/kg/injection, schedule: Q01DX Z (ip), vehicle: water",117 % of control
same,T/C,"dose: 10.0 mg/kg/injection, schedule: Q01DX Z (sc), vehicle: water",100 % of control
same,T/C,"dose: 10.0 mg/kg/injection, schedule: Q02DX Z (ip), vehicle: water",111 % of control and 112 % of control
same,T/C,"dose: 10.0 mg/kg/injection, schedule: Q02DX Z (oral), vehicle: water",121 % of control
same,T/C,"dose: 12.0 mg/kg/injection, schedule: Q01DX Z (ip), vehicle: water",114 % of control and 122 % of control
same,T/C,"dose: 12.5 mg/kg/injection, schedule: Q01DX Z (ip), vehicle: water",120 % of control
same,T/C,"dose: 15.0 mg/kg/injection, schedule: Q01DX Z (ip), vehicle: other",151 % of control
same,T/C,"dose: 15.0 mg/kg/injection, schedule: Q01DX Z (ip), vehicle: water",95 % of control
same,T/C,"dose: 20.0 mg/kg/injection, schedule: Q01DX001 (ip), vehicle: water",106 % of control
same,T/C,"dose: 20.0 mg/kg/injection, schedule: Q01DX Z (ip), vehicle: water",98 % of control and 104 % of control
same,T/C,"dose: 20.0 mg/kg/injection, schedule: Q07DX003 (ip), vehicle: water",123 % of control
same,T/C,"dose: 22.0 mg/kg/injection, schedule: Q01DX Z (ip), vehicle: carboxymethylcellulose (CMC)",92 % of control
same,T/C,"dose: 30.0 mg/kg/injection, schedule: Q01DX001 (ip), vehicle: water",114 % of control
same,T/C,"dose: 30.0 mg/kg/injection, schedule: Q02DX Z (ip), vehicle: water",120 % of control
same,T/C,"dose: 30.0 mg/kg/injection, schedule: Q02DX Z (oral), vehicle: water",90 % of control
same,T/C,"dose: 30.0 mg/kg/injection, schedule: Q03DX Z (ip), vehicle: water",124 % of control
same,T/C,"dose: 30.0 mg/kg/injection, schedule: Q07DX003 (ip), vehicle: water",103 % of control
same,T/C,"dose: 33.0 mg/kg/injection, schedule: Q01DX Z (ip), vehicle: carboxymethylcellulose (CMC)",114 % of control
same,T/C,"dose: 40.0 mg/kg/injection, schedule: Q01DX001 (ip), vehicle: water",114 % of control
same,T/C,"dose: 40.0 mg/kg/injection, schedule: Q01DX Z (ip), vehicle: water",98 % of control and 102 % of control
same,T/C,"dose: 40.0 mg/kg/injection, schedule: Q01DX Z (oral), vehicle: water",92 % of control
same,T/C,"dose: 40.0 mg/kg/injection, schedule: Q03DX Z (ip), vehicle: water",88 % of control
same,T/C,"dose: 80.0 mg/kg/injection, schedule: Q01DX001 (ip), vehicle: saline",117 % of control
same,T/C,"dose: 80.0 mg/kg/injection, schedule: Q07DX Z (ip), vehicle: saline",114 % of control
same,T/C,"dose: 160.0 mg/kg/injection, schedule: Q07DX Z (ip), vehicle: saline",105 % of control
COc1ccc(OC)c(NC(=O)Nc2ccc([As](=O)(O)O)cc2)c1,T/C,"dose: 50.0 mg/kg/injection, schedule: Q04DX003 (ip), vehicle: Klucel (hydroxypropylcellulose) (HPC)",96 % of control
same,T/C,"dose: 100.0 mg/kg/injection, schedule: Q04DX003 (ip), vehicle: Klucel (hydroxypropylcellulose) (HPC)",100 % of control
same,T/C,"dose: 200.0 mg/kg/injection, schedule: Q04DX003 (ip), vehicle: Klucel (hydroxypropylcellulose) (HPC)",93 % of control and 88 % of control
C=CC(=O)NC12CC3CC(CC(C3)C1)C2,T/C,"dose: 100.0 mg/kg/injection, schedule: Q01DX001 (ip), vehicle: saline",88 % of control
same,T/C,"dose: 100.0 mg/kg/injection, schedule: Q01DX009 (ip), vehicle: saline with Tween-80",104 % of control
same,T/C,"dose: 200.0 mg/kg/injection, schedule: Q01DX001 (ip), vehicle: saline",93 % of control
same,T/C,"dose: 200.0 mg/kg/injection, schedule: Q01DX009 (ip), vehicle: saline with Tween-80",97 % of control
same,T/C,"dose: 400.0 mg/kg/injection, schedule: Q01DX001 (ip), vehicle: saline",90 % of control
same,T/C,"dose: 400.0 mg/kg/injection, schedule: Q01DX009 (ip), vehicle: saline with Tween-80",101 % of control
ON=C1C2CC3CC(C2)CC1C3,T/C,"dose: 75.0 mg/kg/injection, schedule: Q01DX001 (ip), vehicle: other",96 % of control
same,T/C,"dose: 150.0 mg/kg/injection, schedule: Q01DX001 (ip), vehicle: other",94 % of control
same,T/C,"dose: 300.0 mg/kg/injection, schedule: Q01DX001 (ip), vehicle: other",93 % of control
Nc1ccc(Nc2ncnc3nc[nH]c23)cc1,T/C,"dose: 100.0 mg/kg/injection, schedule: Q04DX003 (ip), vehicle: saline with Tween-80",102 % of control
same,T/C,"dose: 200.0 mg/kg/injection, schedule: Q04DX003 (ip), vehicle: saline with Tween-80",98 % of control
same,T/C,"dose: 400.0 mg/kg/injection, schedule: Q04DX003 (ip), vehicle: saline with Tween-80",107 % of control
CCCCCCCCCCOP(OCCCCCCCCCC)Oc1ccccc1,T/C,"dose: 100.0 mg/kg/injection, schedule: Q04DX003 (ip), vehicle: saline",102 % of control
same,T/C,"dose: 200.0 mg/kg/injection, schedule: Q04DX003 (ip), vehicle: saline",93 % of control
same,T/C,"dose: 400.0 mg/kg/injection, schedule: Q04DX003 (ip), vehicle: saline",102 % of control
CN(Cc1ccccc1O)C1CCCCC1,T/C,"dose: 75.0 mg/kg/injection, schedule: Q01DX001 (ip), vehicle: saline",95 % of control
O=C(CCCCC(=O)NO)NO,T/C,"dose: 100.0 mg/kg/injection, schedule: Q04DX002 (ip), vehicle: saline with Tween-80",110 % of control
same,T/C,"dose: 100.0 mg/kg/injection, schedule: Q04DX002 (ip), vehicle: saline",103 % of control
same,T/C,"dose: 200.0 mg/kg/injection, schedule: Q04DX002 (ip), vehicle: saline with Tween-80",110 % of control
same,T/C,"dose: 200.0 mg/kg/injection, schedule: Q04DX002 (ip), vehicle: saline",90 % of control
same,T/C,"dose: 400.0 mg/kg/injection, schedule: Q04DX002 (ip), vehicle: saline with Tween-80",107 % of control
same,T/C,"dose: 400.0 mg/kg/injection, schedule: Q04DX002 (ip), vehicle: saline",107 % of control
COc1ccccc1CN1CCCN(Cc2ccccc2OC)C1c1cccc(F)c1,T/C,"dose: 50.0 mg/kg/injection, schedule: Q01DX001 (ip), vehicle: carboxymethylcellulose (CMC)",112 % of control
same,T/C,"dose: 100.0 mg/kg/injection, schedule: Q01DX001 (ip), vehicle: carboxymethylcellulose (CMC)",108 % of control
same,T/C,"dose: 200.0 mg/kg/injection, schedule: Q01DX001 (ip), vehicle: carboxymethylcellulose (CMC)",108 % of control
same,T/C,"dose: 400.0 mg/kg/injection, schedule: Q01DX001 (ip), vehicle: carboxymethylcellulose (CMC)",102 % of control
